Like-named read-outs stand apart in the source and are kept apart here.
What was measured:
[1] = MIRACL trial: primary efficacy measure (recurrent ischemic events) over 16 weeks; assay type: in vivo, human; conditions: 2442 patients with baseline data, 16-week follow-up
Description: (§1) The MIRACL study design was previously published. Briefly, the study recruited 3086 patients with unstable angina or non-Q-wave acute myocardial infarction between 24-96 hours after hospital admission at 122 centers in 19 countries. Patients were randomly assigned to double-blind treatment with atorvastatin 80 mg/day or placebo for 16 weeks. The primary efficacy measure was the time to first occurrence of death, nonfatal acute myocardial infarction, cardiac arrest with resuscitation, or worsening angina with new objective evidence of ischemia and requiring emergency re-hospitalization. […] Patients were analyzed on an intention-to-treat basis.
(§2) Since the baseline and Week 16 distributions of the OxLDL markers were positively skewed, log-transformed values were used in the statistical models and analyses and antilog-transformed for descriptive statistics yielding geometric means and 95% confidence intervals (CI) for baseline, Week 16 and percent change from baseline to Week 16. […] For each marker, the logistic regression model included terms for log-transformed marker and randomized treatment assignment; odds ratios were expressed as the relative odds for each one unit increase in the log-transformed marker. Pearson correlations were calculated to summarize the relationship between OxPL/apoB and Lp(a) at baseline and at Week 16. […]

[2] = system: oxidized phospholipids (OxPL) on apoB-100 particles; assay: OxLDL-E06 chemiluminescent ELISA (OxPL/apoB and Total apoB-OxPL) in plasma; assay type: in vivo, human
Description: (§3) The MIRACL study design was previously published. Briefly, the study recruited 3086 patients with unstable angina or non-Q-wave acute myocardial infarction between 24-96 hours after hospital admission at 122 centers in 19 countries. Patients were randomly assigned to double-blind treatment with atorvastatin 80 mg/day or placebo for 16 weeks. The primary efficacy measure was the time to first occurrence of death, nonfatal acute myocardial infarction, cardiac arrest with resuscitation, or worsening angina with new objective evidence of ischemia and requiring emergency re-hospitalization. 2739 patients completed the entire 16 week follow-up period, of whom 2442 had baseline blood samples and 2341 had baseline and Week 16 blood samples available for analysis. Blood was collected in EDTA and stored at −70° C. until analysis. Patients were analyzed on an intention-to-treat basis.
(§4) Chemiluminescent ELISA was used to measure OxLDL markers (FIG. 1A-1C). All samples for a given assay were run in a single assay and internal controls consisting of high and low standard plasma samples were included to detect potential variations between microtitration plates. Each sample was assayed in triplicate and data are expressed as relative light units (RLU) in 100 milliseconds. The intra-assay coefficients of variation for all assays were 6-10%.
OxLDL-E06 is a measure of the content of oxidized phospholipids (OxPL) per apoB-100 particle using the murine monoclonal antibody E06, which specifically binds to the phosphorylcholine head group of oxidized but not native phospholipids. A 1:50 dilution of plasma in phosphate-buffered saline (PBS) is added to microtiter wells coated with the monoclonal antibody MB47 (5 μg/ml), which specifically binds apoB-100 particles. Under these conditions, a saturating amount of apoB-100 is added to each well and consequently an equal number of apoB-100 particles are captured in each well for all assays. The content of OxPL per apoB-100 is then determined with biotinylated E06. In a previous study we directly measured the amount of apoB-100 bound in each well by the degree of binding of a biotinylated anti-apoB-100 antibody, and compared the OxPL RLU values alone to the ratio of OxPL RLU/apoB-100 RLU and found a correlation of r^2=0.99 (n=1500 samples). Therefore, we arbitrarily assigned the apoB-100 RLU value in the denominator as 1 and report the OxPL/apoB values as OxPL RLU counts only. Note that by design, this assay normalizes the OxPL content per apoB-100 particle and is therefore independent of plasma apoB-100 (and thus LDL-cholesterol) levels.
(§5) The data for OxLDL-E06 and apoB-IC are presented in two ways: 1) as OxPL/apoB and IC/apoB, which specifically quantifies the content of OxPL and IC, respectively, on each captured apoB-100 particle, and 2) as Total apoB-OxPL and Total apoB-IC, which reflects the OxPL and IC content on all apoB-100 containing particles in plasma, by multiplying the plasma “OxPL/apoB” and “IC/apoB” value by the plasma apoB-100 levels measured independently as noted below.
Since the baseline and Week 16 distributions of the OxLDL markers were positively skewed, log-transformed values were used in the statistical models and analyses and antilog-transformed for descriptive statistics yielding geometric means and 95% confidence intervals (CI) for baseline, Week 16 and percent change from baseline to Week 16. […]

[3] = system: apoB-100 immune complexes; assay: Apolipoprotein B-100 immune complexes (IC/apoB and Total apoB-IC, IgG and IgM) chemiluminescent ELISA in plasma; assay type: in vivo, human
Description: as §3, §4, §5
(§6) Plasma titers of IgG and IgM apoB-IC and malondialdehyde (MDA-LDL) (1:200 plasma dilution) autoantibodies and apoB-IC were measured as previously described.
Since the baseline and Week 16 distributions of the OxLDL markers were positively skewed, log-transformed values were used in the statistical models and analyses and antilog-transformed for descriptive statistics yielding geometric means and 95% confidence intervals (CI) for baseline, Week 16 and percent change from baseline to Week 16. Inferential analyses included paired-sample t-tests for within treatment group differences in markers at baseline versus Week 16, and independent-sample t-tests for between treatment group differences in markers at Week 16 and between treatment group differences in absolute change in log-transformed markers from baseline to Week 16. Logistic regression models were constructed to summarize the relationships between baseline OxLDL values and the primary efficacy measure of the trial. For each marker, the logistic regression model included terms for log-transformed marker and randomized treatment assignment; odds ratios were expressed as the relative odds for each one unit increase in the log-transformed marker. Pearson correlations were calculated to summarize the relationship between OxPL/apoB and Lp(a) at baseline and at Week 16. Statistical significance was defined as P<0.05.

[4] = system: MDA-LDL autoantibodies; assay: Autoantibodies to MDA-LDL (IgG and IgM) chemiluminescent ELISA in plasma; assay type: in vivo, human
Description: as §3
Chemiluminescent ELISA was used to measure OxLDL markers (FIG. 1A-1C). […] Each sample was assayed in triplicate and data are expressed as relative light units (RLU) in 100 milliseconds. […]
as §6, §2

[5] = system: Lp(a); assay: Plasma Lp(a) level, chemiluminescent ELISA with antibody LPA4; assay type: in vivo, human
Description: as §1
(§7) Plasma Lp(a) levels were measured by a chemiluminescent ELISA with monoclonal antibody LPA4, as previously described. […] ApoB-100 levels were measured by a commercially available kit (Behring) and CRP levels as previously described.
(§8) Since the baseline and Week 16 distributions of the OxLDL markers were positively skewed, log-transformed values were used in the statistical models and analyses and antilog-transformed for descriptive statistics yielding geometric means and 95% confidence intervals (CI) for baseline, Week 16 and percent change from baseline to Week 16. […] Pearson correlations were calculated to summarize the relationship between OxPL/apoB and Lp(a) at baseline and at Week 16. […]

[6] = system: ApoB-100; assay: Plasma apoB-100 level (Behring kit); assay type: in vivo, human
Description: as §1, §7, §8

[7] = system: LDL cholesterol; assay: Plasma LDL cholesterol in MIRACL patients; assay type: in vivo, human
Description: as §3, with “MIRACL” left out, “-70°” for “−70°”

[8] = entire MIRACL population, 16 weeks; cited from earlier work
[9] = system: LDL cholesterol; conditions: PROVE-IT, two years' treatment, 80 mg atorvastatin versus 40 mg pravastatin; cited from earlier work
[10] = Week 16, atorvastatin 80 mg/day, ACS patients, geometric mean

In the case of `CC(C)c1c(C(=O)Nc2ccccc2)c(-c2ccccc2)c(-c2ccc(F)cc2)n1CC[C@@H](O)C[C@@H](O)CC(=O)O` [atorvastatin], the “patients with a primary endpoint event” value [1] is reported as 10.7%, the OxPL/apoB mean level [2, 10] is reported as 11048 RLU and the “Total apoB-OxPL mean level” value [2, 10] is reported as 912 (RLU · mg/dl) × 10^3. For the same compound, the “OxPL/apoB relative increase from baseline” value ([2]; baseline to Week 16, 80 mg/day) was 9.5%, the “Total apoB-OxPL percent change from baseline” value ([2]; baseline to Week 16, 80 mg/day) was −29.7% and the “OxPL enrichment of apoB particles (OxPL/apoB), absolute difference compared to placebo” value ([2]; baseline to Week 16 change, atorvastatin vs placebo) was 13.4%. The “IC/apoB IgG mean level” value [3, 10] was 9048 RLU, the “IC/apoB IgM mean level” value [3, 10] was 3933 RLU and the “Total apoB-IC IgG mean level” value [3, 10] was 749 (RLU · mg/dl) × 10^3. The “Total apoB-IC IgM mean level” value [3, 10] was 325 (RLU · mg/dl) × 10^3, the “IgG IC/apoB relative increase from baseline” value ([3]; baseline to Week 16, 80 mg/day) was 9.6% and the “IgM IC/apoB relative increase from baseline” value ([3]; baseline to Week 16, 80 mg/day) was 15.4%. The “Total apoB-IC IgG percent change from baseline” value ([3]; baseline to Week 16, 80 mg/day) was −29.5%, the “Total apoB-IC IgM percent change from baseline” value ([3]; baseline to Week 16, 80 mg/day) was −25.7% and the “Autoantibodies to MDA-LDL IgG mean level” value [4, 10] was 4922 RLU. For the same compound, the “Autoantibodies to MDA-LDL IgM mean level” value [4, 10] was 1088 RLU, the “IgG and IgM MDA-LDL autoantibody level increase” value ([4]; baseline to Week 16, range stated for both groups (atorvastatin and placebo)) was 9.1-14.4% and the “Lp(a) mean level” value [5, 10] was 13.0 mg/dL. The “Lp(a) relative increase from baseline” value ([5]; baseline to Week 16, 80 mg/day) was 8.8%, the ApoB-100 mean level [6, 10] was 87 mg/dL and the “apoB-100 percent change from baseline” value ([6]; baseline to Week 16, 80 mg/day) was −33.0%. For the same compound, the “LDL cholesterol level after treatment” value ([7]; Week 16 (from 124±34 at baseline), 80 mg/day) was 72 ± 35 mg/dL, the “reduction in LDL cholesterol” value ([7]; baseline to Week 16, 80 mg/day) was 42% and the “patients with a primary endpoint event” value [8] was 14.6%. The “median LDL cholesterol level” value [9] was 62 mg/dL.

— patent US8129123B2, “Methods for assessing atherogenesis by determining oxidized phospholipid to apolipoprotein B ratios” (The Regents of the University of California, priority 2004, dated 2012)
